From patent publication US20050025727A1, “Natural sunlight photostable composition” (priority 2003, published 2005)

Assay: Photostability in natural sunlight: residual sunscreen active by HPLC, 2 mg/cm^2 film on microscope slides
Type: physicochemical
Conditions: for Residual Octisalate, Residual %: natural sunlight as in Example 1, formula not named (context: Formula 5)
Protocol: As described above, a sunscreen composition of SPF X is considered to be “photostable” when at least 70%, preferably at least 75%, more preferably at least 80% of each sunscreen active in the composition remains after exposure of the composition to Y SEDS of natural sunlight, where Y is about ½ X. “Photostability” is assessed by (i) assaying the pre-UVR exposure concentration of each sunscreen active present in the sunscreen composition by high-performance liquid chromatography (“HPLC”); (ii) applying a sample of the sunscreen composition at a concentration of 2 mg/cm^2 (a standard concentration used in SPF testing) to a non-coated microscope slide or similar non-reactive surface (e.g., glass or quartz plate); (iii) irradiating the sample in natural sunlight according to a dosing regimen as illustrated in Table 1; (iv) assaying the concentration of each sunscreen active post-UVR exposure. More specifically, after the desired UVR exposure, each slide is removed from sunlight and placed in a sealed Blue Max™ polypropylene conical tube (Becton Dickinson) or similar container, and stored in an area to prevent further exposure to natural sunlight. When an irradiation series is completed, the residual content of each sunscreen active is determined via HPLC, such as the Perkin Elmer Model 200, equipped with a 785 UVN detector, and a C18 column. A detector wavelength of 310 nm and an eluent solution of […] may be used. The sunscreen composition is extracted from the slide with isopropanol or other suitable solvent and sonicated for a minimum of 10 minutes to completely solubilize the sunscreen actives. The solution is then filtered with a 0.45 um GHP13 mm syringe filter. The above analytical procedure may be modified in a manner that would be obvious to the person of ordinary skill in the art. To compare the photostability of Formulas 1 and 2, a uniform 2 mg/cm^2 film of sunscreen product was placed on multiple microscope slides. The slides were exposed to direct sunlight for time intervals corresponding to 1, 2, 4, 8, and 16 SEDs as measured by a Solar Light PMA 2100 detector. (Unless otherwise indicated, all sunlight exposures were in Ormond Beach, Fla.). Slides were removed from the sun after the desired exposure and stored in Blue Max™ polypropylene conical tubes. Upon completion of the test series, samples were dissolved in a suitable solvent, sonicated and then assayed via HPLC. Unless otherwise indicated, all assays were performed by HPLC with oxybenzone, if present, as the internal standard.

## CCCCC(CC)COC(=O)c1ccccc1O (stereo not drawn) [Octisalate]
Exposed to natural sunlight as in Example 1
  Photostability of octisalate: photolabile
1 SED
  Residual Octisalate, Residual %: 96%
2 SEDs
  Residual Octisalate, Residual %: 100%
4 SEDs
  Residual Octisalate, Residual %: 92%
8 SEDs
  Residual Octisalate, Residual %: 80%
16 SEDs
  Residual Octisalate, Residual %: 55%
